Laboratory results reported in US8920789B2, “Use of polymer D-lactic acid (PDLA) or equivalents thereof to inhibit growth of cancer cells and diagnose cancers” (The United States of America as represented by the …, priority 2011, dated 2014).

Legend:
[1] = Interference with d-lactate measurement in saline (D-Lactate Accuvin test strips); conditions: similar methodology
[2] = Interference with l-lactate measurement in saline (L-Lactate Accuvin test strips); conditions: d-lactic acid (0.05 mg) + l-lactic acid (0.06 mg)
Protocol: Forty mg of d-lactic acid (Sigma-Aldrich, St. Louis, Mo.; catalog no. L0625) was polymerized in a microwave oven according to the method of Pandey and Aswath (J Biomater Sci Polym Ed. 2009; 20(1):33-48). Briefly, d-lactic acid was transferred to 2 ml Reacti-Vials (Pierce Chemical Co., Rockford, Ill.) and the polymerization was carried out vented in a GE Spacemaker Model JVM 1650WH05 (Serial #900524B; manufactured April 2006) with an RF output frequency of 2450 MHz in the absence of any added solvent or catalyst. Polymerization was carried out starting at Power 1 setting on the microwave and weighing at 30 second intervals. […] Weight loss was from water during polymer esterification and dehydration. During the course of the microwave process, d-lactic acid crystals undergo a state change from a solid to a liquid and then to a gel at the end of the process. Similar procedure was used to produce PLLA with l-lactic acid.
[…] Measurement of l-lactate with L-Lactate Accuvin Test strips (Accuvin LLC, Napa, Ca), using stereospecific lactate dehydrogenase and a tetrazolium color indicator, measured less l-lactate (interference) in the experimental sample as evidenced by colorimetric determination. Experimental sample vs, control measured 10 mg/L vs, 50 mg/L of l-lactate. Other relevant tests using similar methodology and D-Lactate Accuvin Test strips are as follows:

| Structure (SMILES) | Interference with lactate measurement (in words) [1] | l-lactate test strip [2] |
| --- | --- | --- |
| C[C@H](O)C(=O)O [l-lactic acid] | No interference | – |
| C[C@@H](O)C(=O)O [d-lactic acid] | – | 50 mg/L |
